Source: ChEMBL document CHEMBL3085695, “Novel state-dependent voltage-gated sodium channel modulators, based on marine alkaloids from Agelas sponges” (Eur J Med Chem, 2013)

Key:
[1] = target: Sodium channel protein type 3 subunit alpha (Homo sapiens, UniProt Q9NY46); test: Modulation of human Nav1.3 by automated patch clamp electrophysiology assay
[2] = target: Sodium channel protein type 5 subunit alpha (Homo sapiens, UniProt Q14524); test: Modulation of human Nav1.5 by automated patch clamp electrophysiology assay
[3] = target: Sodium channel protein type 4 subunit alpha (Homo sapiens, UniProt P35499); test: Modulation of human Nav1.4 by automated patch clamp electrophysiology assay
[4] = target: Sodium channel protein type 9 subunit alpha (Homo sapiens, UniProt Q15858); test: Modulation of human Nav1.7 by automated patch clamp electrophysiology assay

Sequence of Sodium channel protein type 4 subunit alpha (P35499 whole entry): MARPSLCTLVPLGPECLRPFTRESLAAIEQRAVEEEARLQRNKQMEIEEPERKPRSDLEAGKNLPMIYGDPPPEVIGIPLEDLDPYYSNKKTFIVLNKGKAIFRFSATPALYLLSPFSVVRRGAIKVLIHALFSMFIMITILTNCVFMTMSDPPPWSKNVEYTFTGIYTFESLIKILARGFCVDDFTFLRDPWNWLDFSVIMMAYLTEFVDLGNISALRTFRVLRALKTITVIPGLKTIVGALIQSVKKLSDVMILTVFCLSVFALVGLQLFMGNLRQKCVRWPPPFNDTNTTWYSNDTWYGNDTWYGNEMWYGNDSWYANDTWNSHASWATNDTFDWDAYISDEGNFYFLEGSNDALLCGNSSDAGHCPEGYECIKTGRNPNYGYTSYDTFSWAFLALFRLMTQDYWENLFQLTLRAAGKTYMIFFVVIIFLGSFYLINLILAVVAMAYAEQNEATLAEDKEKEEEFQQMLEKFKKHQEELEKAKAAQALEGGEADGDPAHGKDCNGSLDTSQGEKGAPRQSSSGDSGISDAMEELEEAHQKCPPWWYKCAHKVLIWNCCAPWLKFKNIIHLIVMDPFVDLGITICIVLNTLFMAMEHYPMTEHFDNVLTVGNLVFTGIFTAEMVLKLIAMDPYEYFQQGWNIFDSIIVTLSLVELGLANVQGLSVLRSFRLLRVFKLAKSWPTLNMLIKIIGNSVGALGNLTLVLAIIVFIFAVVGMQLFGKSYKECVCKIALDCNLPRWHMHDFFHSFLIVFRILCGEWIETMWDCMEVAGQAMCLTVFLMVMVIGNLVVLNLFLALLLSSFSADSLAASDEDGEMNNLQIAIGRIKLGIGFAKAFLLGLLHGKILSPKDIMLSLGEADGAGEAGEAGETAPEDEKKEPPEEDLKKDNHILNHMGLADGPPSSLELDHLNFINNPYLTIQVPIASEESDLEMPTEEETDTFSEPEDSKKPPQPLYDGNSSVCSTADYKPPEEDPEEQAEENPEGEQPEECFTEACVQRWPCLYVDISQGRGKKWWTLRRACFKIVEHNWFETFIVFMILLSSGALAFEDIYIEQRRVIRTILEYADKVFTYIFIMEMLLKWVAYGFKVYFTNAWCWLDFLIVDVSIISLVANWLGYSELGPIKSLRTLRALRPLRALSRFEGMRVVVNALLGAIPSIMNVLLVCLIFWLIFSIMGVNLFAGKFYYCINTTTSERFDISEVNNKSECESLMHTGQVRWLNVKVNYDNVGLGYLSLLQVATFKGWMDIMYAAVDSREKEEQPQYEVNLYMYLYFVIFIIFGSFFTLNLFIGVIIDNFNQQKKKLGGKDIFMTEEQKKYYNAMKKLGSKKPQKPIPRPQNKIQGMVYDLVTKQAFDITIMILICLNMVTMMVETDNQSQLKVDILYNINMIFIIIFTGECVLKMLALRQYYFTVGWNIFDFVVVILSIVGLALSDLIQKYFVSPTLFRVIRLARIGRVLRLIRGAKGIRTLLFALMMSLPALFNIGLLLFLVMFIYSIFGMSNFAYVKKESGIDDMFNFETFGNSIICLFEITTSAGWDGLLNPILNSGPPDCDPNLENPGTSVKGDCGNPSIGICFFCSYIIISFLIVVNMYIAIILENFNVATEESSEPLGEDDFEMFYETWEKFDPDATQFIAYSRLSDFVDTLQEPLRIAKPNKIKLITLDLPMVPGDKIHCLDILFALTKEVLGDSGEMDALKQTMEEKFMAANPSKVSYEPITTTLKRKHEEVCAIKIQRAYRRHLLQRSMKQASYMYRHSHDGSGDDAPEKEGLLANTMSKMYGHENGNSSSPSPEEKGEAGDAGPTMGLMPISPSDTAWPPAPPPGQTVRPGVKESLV
Sequence of Sodium channel protein type 3 subunit alpha (Q9NY46 whole entry): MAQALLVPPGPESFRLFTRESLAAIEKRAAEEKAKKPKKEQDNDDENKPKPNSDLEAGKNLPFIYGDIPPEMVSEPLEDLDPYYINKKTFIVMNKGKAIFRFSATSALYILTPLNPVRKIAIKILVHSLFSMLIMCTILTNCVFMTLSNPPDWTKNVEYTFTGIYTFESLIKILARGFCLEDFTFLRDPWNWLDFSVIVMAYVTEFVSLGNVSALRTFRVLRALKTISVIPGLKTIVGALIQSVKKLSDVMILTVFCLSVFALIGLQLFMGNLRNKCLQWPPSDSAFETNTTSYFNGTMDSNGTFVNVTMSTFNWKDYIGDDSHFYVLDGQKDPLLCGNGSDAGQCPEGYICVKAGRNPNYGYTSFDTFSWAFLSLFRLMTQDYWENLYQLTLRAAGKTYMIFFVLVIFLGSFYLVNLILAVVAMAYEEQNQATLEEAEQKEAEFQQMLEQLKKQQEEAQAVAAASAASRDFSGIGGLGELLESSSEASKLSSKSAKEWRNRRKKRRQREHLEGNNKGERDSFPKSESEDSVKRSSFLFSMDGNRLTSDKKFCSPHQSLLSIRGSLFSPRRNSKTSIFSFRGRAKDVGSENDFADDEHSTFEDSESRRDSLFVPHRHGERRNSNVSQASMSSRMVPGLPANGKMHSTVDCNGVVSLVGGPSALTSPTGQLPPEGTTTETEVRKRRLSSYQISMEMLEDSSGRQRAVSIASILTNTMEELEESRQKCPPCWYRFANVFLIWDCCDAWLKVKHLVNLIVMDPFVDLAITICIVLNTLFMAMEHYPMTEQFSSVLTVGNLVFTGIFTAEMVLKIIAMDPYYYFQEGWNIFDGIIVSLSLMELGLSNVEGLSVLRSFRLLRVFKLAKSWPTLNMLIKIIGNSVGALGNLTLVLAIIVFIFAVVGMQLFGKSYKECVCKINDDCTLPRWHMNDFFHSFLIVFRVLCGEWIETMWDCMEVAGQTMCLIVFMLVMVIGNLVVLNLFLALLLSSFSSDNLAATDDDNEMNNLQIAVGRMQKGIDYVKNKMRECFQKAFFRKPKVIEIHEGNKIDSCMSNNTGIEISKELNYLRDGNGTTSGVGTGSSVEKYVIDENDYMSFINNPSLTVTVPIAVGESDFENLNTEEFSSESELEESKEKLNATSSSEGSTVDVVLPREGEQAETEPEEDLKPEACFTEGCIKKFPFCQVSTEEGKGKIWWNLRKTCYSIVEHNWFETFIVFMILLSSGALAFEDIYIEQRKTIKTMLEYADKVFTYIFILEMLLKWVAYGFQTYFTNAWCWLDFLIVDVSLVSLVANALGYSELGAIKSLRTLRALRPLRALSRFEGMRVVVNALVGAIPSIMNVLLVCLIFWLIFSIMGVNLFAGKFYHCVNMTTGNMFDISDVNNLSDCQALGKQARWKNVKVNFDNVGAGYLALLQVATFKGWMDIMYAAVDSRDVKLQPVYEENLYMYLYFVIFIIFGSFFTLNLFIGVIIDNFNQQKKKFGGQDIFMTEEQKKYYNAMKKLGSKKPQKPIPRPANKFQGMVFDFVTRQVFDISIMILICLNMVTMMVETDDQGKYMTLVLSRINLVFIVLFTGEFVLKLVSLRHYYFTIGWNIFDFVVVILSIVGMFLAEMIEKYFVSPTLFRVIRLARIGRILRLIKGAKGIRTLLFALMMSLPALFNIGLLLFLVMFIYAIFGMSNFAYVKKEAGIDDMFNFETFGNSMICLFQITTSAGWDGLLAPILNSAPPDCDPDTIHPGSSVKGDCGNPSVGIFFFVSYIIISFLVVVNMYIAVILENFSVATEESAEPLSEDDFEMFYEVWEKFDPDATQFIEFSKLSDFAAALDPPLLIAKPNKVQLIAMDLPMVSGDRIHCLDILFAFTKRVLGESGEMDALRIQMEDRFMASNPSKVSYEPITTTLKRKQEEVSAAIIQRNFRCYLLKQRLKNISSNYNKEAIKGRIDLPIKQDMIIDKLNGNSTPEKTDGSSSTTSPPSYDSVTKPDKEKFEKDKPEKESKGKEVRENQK

| SMILES | IC50 [1] | IC50 [3] | IC50 [4] | IC50 [2] |
| --- | --- | --- | --- | --- |
| Nc1nc2c(s1)CC(CNC(=O)[C@@H]1CCCN1)CC2 (stereo partly specified) | > 30 µM | > 30 µM | > 30 µM | > 30 µM |
| Nc1nc2c(s1)C[C@@H](NCc1ccc[nH]1)CC2 | 25 µM | 30 µM | 21 µM | > 30 µM |
| Nc1nc2c(s1)C[C@@H](NC(=O)[C@@H]1CCCN1)CC2 | > 30 µM | 25 µM | > 30 µM | > 30 µM |
| Nc1nc2c(s1)C[C@@H](NC(=O)c1ccc[nH]1)CC2 | > 30 µM | > 30 µM | 21 µM | > 30 µM |
| Nc1nc2c(s1)C[C@@H](NC(=O)c1cc(Br)c(Br)[nH]1)CC2 | 26 µM | 15 µM | 16 µM | > 30 µM |
| Nc1nc2c(s1)C[C@@H](NC(=O)c1cc3ccccc3[nH]1)CC2 | > 30 µM | 16 µM | 29 µM | > 30 µM |

Now from value to compound, other results behind:

| IC50 [1] | IC50 [3] | IC50 [4] | SMILES | IC50 [2] |
| --- | --- | --- | --- | --- |
| 24 µM | 16 µM | > 30 µM | Cn1cccc1C(=O)N[C@H]1CCc2nc(N)sc2C1 | > 30 µM |
| 28 µM | > 30 µM | 20 µM | Nc1nc2c(s1)CC(CNC(=O)c1ccc[nH]1)CC2 (stereo unspecified) | 21 µM |
| 26 µM | > 30 µM | 18 µM | Nc1nc2c(s1)C[C@@H](NC(=O)c1cc(Br)c[nH]1)CC2 | 21 µM |
| 16 µM | 21 µM | 23 µM | Nc1nc2c(s1)CC(CNC(=O)c1cc3ccccc3[nH]1)CC2 (stereo unspecified) | > 30 µM |
| 26 µM | > 30 µM | > 30 µM | CC(C)(C)OC(=O)N1CCC[C@H]1C(=O)NCC1CCc2nc(N)sc2C1 (stereo partly specified) | 20 µM |
| 18 µM | > 30 µM | 23 µM | Nc1nc2c(s1)CC(CNC(=O)c1cc(Br)c(Br)[nH]1)CC2 (stereo unspecified) | > 30 µM |
| > 30 µM | 8 µM | > 30 µM | CC(C)(C)OC(=O)N1CCC[C@H]1C(=O)N[C@H]1CCc2nc(N)sc2C1 | > 30 µM |
| 27 µM | > 30 µM | > 30 µM | Nc1nc2c(s1)C[C@@H](NC(=O)c1ccco1)CC2 | > 30 µM |
